Measurements taken from ChEMBL document CHEMBL1134047, “Binding of a cyclic BIV beta-Tat peptide with its TAR RNA construct” (Bioorg Med Chem Lett, 2001).

What follows are compounds tested on Nucleic Acid (assay: Binding affinity to the ([…]) BIV TAR RNA target was determined by fluorescence binding study).
Type: nucleic-acid assay, Bos taurus

| Structure (SMILES) | Kd |
| --- | --- |
| CC[C@H](C)[C@H](NC(=O)[C@H](CCCNC(=N)N)NC(=O)[C@H](CCCNC(=N)N)NC(=O)CNC(=O)[C@H](CCCCN)NC(=O)CNC(=O)[C@H](CCCNC(=N)N)NC(=O)[C@@H](NC(=O)CNC(=O)[C@H](CCCNC(=N)N)NC(=O)[C@H]1CCCN1C(=O)[C@H](CCCNC(=N)N)NC(=O)[C@H]1CCCN1C(=O)CNC(=O)[C@@H](N)CO)[C@@H](C)O)C(=O)N[C@@H](CCCNC(=N)N)C(=O)N[C@@H](CCCNC(=N)N)C(=O)O | 1.32 nM |
| CC[C@H](C)[C@@H]1NC(=O)[C@@H](CCCNC(=N)N)NC(=O)[C@H](CCCNC(=N)N)NC(=O)CNC(=O)[C@H](CCCCN)NC(=O)CNC(=O)[C@H](CCCNC(=N)N)NC(=O)[C@@H]([C@@H](C)O)NC(=O)CNC(=O)[C@@H](CCCNC(=N)N)NC(=O)[C@@H]2CCCN2C(=O)[C@@H](CCCNC(=N)N)NC(=O)[C@H]2CCCN2C(=O)CNC(=O)[C@@H](CO)NC(=O)[C@@H](N)CSSC[C@@H](C(=O)O)NC(=O)[C@H](CCCNC(=N)N)NC(=O)[C@@H](CCCNC(=N)N)NC1=O | 0.273 nM |
| CC[C@H](C)[C@H](NC(=O)[C@H](CCCN=C(N)N)NC(=O)[C@H](CCCN=C(N)N)NC(=O)CNC(=O)[C@H](CCCCN)NC(=O)CNC(=O)[C@H](CCCN=C(N)N)NC(=O)[C@@H](NC(=O)CNC(=O)[C@H](CCCN=C(N)N)NC(=O)[C@H]1CCCN1C(=O)[C@H](CCCN=C(N)N)NC(=O)[C@H]1CCCN1C(=O)CNC(=O)[C@H](CO)NC(=O)[C@@H](N)CS)[C@@H](C)O)C(=O)N[C@@H](CCCN=C(N)N)C(N)=O | 1.28 nM |
